What was measured:
duck salad = assay: Test C flooded paddy test; type: in vivo, Heteranthera limosa; settings: Flood
Procedure, shortened: (§1)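 Visual injury ratings against untreated controls, taken 13 to 15 days after compound was added to paddy water standing 3 cm above the soil.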

giant foxtail [1] = assay: Test C pre-/postemergence test; type: in vivo, Setaria faberii
Procedure, shortened: (§2)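 Seeds were planted and treated preemergence with test chemical in a non-phytotoxic solvent mixture containing surfactant. Postemergence applications of the same formulation went onto plants 2 to 18 cm tall (1- to 4-leaf stage). A dash marks no test result.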

velvetleaf [2] = assay: Test C pre-/postemergence test; type: in vivo, Abutilon theophrasti
Procedure, shortened: as §2

johnsongrass = assay: Test C pre-/postemergence test; type: in vivo, Sorghum halepense
Procedure, shortened: as §2

Surinam grass = assay: Test C pre-/postemergence test; type: in vivo, Brachiaria decumbens
Procedure, shortened: as §2

barnyardgrass = assay: Test C flooded paddy test; type: in vivo, Echinochloa crus-galli; settings: Flood
Procedure, shortened: as §1

common ragweed = assay: Test C pre-/postemergence test; type: in vivo, Ambrosia elation
Procedure, shortened: as §2

redroot pigweed = assay: Test A pre-/postemergence greenhouse test; type: in vivo, Amaranthus retroflexus; settings: for Plant response rating, Pigweed: 0 to 100 scale where 0 is no effect and 100 is complete control; for Pigweed plant response rating: 0 to 100 scale
Procedure, shortened: (§3)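 Planting was into mixed loam soil and sand; preemergence treatment followed as a directed soil spray. Concurrently, emerged plants (one- to two-leaf, 2–10 cm) received postemergence applications of identically formulated compound (non-phytotoxic solvent, surfactant). After approximately ten days under greenhouse conditions, injury was judged by eye against untreated plants.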

bermudagrass = assay: Test C pre-/postemergence test; type: in vivo, Cynodon dactylon
Procedure, shortened: as §2

wheat = assay: Test A pre-/postemergence greenhouse test; type: in vivo, Triticum aestivum; settings: for Plant response rating, Wheat: 0 to 100 scale where 0 is no effect and 100 is complete control; for Wheat plant response rating: 0 to 100 scale
Procedure, shortened: as §3

corn = assay: Test A pre-/postemergence greenhouse test; type: in vivo, Zea mays; settings: for Plant response rating, Corn: 0 to 100 scale where 0 is no effect and 100 is complete control; for Corn plant response rating: 0 to 100 scale
Procedure, shortened: as §3

wild oat = assay: Test C pre-/postemergence test; type: in vivo, Avena fatua
Procedure, shortened: as §2

velvetleaf [3] = assay: Test A pre-/postemergence greenhouse test; type: in vivo, Abutilon theophrasti; settings: for Plant response rating, Velvetleaf: 0 to 100 scale where 0 is no effect and 100 is complete control; for Velvetleaf plant response rating: 0 to 100 scale
Procedure, shortened: as §3

eastern black nightshade = assay: Test C pre-/postemergence test; type: in vivo, Solanum ptycanthum
Procedure, shortened: as §2

Goosegrass = assay: Test C pre-/postemergence test; type: in vivo, Eleusin indica
Procedure, shortened: as §2

giant foxtail [4] = assay: Test A pre-/postemergence greenhouse test; type: in vivo, Setaria faberi; settings: for Plant response rating, Foxtail, Giant: 0 to 100 scale where 0 is no effect and 100 is complete control; for Foxtail, Giant plant response rating: 0 to 100 scale
Procedure, shortened: as §3

lambsquarters = assay: Test C pre-/postemergence test; type: in vivo, Chenopodium album
Procedure, shortened: as §2

rice = assay: Test C flooded paddy test; type: in vivo, Oryza sativa; settings: Flood
Procedure, shortened: as §1

[5] = 62 g ai/ha, scale 0 to 100 (0 no effect, 100 complete control)
[6] = 250 g ai/ha, scale 0 to 100, 0 no effect, 100 complete control, 13 to 15 days
[7] = 62 g ai/ha, Preemergence, scale 0 to 100
[8] = 125 g ai/ha, preemergence, scale 0 (no effect) to 100 (complete control)
[9] = Preemergence, 31 g ai/ha, scale 0 to 100 (0 no effect, 100 complete control)
[10] = preemergence, 250 g ai/ha, scale 0 (no effect) to 100 (complete control)
[11] = Postemergence, 500 g ai/ha, 0 is no effect, 100 is complete control
[12] = Preemergence, 125 g ai/ha, 0 no effect, 100 complete control

CC(Oc1c(C[S+]([O-])c2cccc[n+]2[O-])c(C(F)(F)F)nn1C)C(F)(F)F (stereo not drawn) [Compound 77]
95: Oat, Wild plant response rating (wild oat; [10]) | Plant response rating, Goosegrass (Goosegrass; [9])
75: Plant response rating, Ducksalad (duck salad; [5]) | Plant response rating, Barnyardgrass (barnyardgrass; [6])
50: Plant response rating, Wheat (wheat; Postemergence, 125 g ai/ha) | Wheat plant response rating (wheat; [12]) | Plant response rating, Corn (corn; Postemergence, 125 g ai/ha) | Corn plant response rating (corn; [12]) | Plant response rating, Velvetleaf (velvetleaf [3]; Postemergence, 125 g ai/ha) | Velvetleaf plant response rating (velvetleaf [3]; [12])
0: Plant response rating, Barnyardgrass (barnyardgrass; [5])
90: Oat, Wild plant response rating (wild oat; [8]) | Velvetleaf plant response rating (velvetleaf [3]; [11]) | Foxtail, Giant plant response rating (giant foxtail [4]; [11]) | Foxtail, Giant plant response rating (giant foxtail [4]; [12])
80: Plant response rating, Foxtail, Giant (giant foxtail [1]; [9]) | Pigweed plant response rating (redroot pigweed; [11]) | Plant response rating, Corn (corn; Preemergence, 500 g ai/ha) | Plant response rating, Foxtail, Giant (giant foxtail [4]; Postemergence, 125 g ai/ha)
30: Plant response rating, Rice (rice; [5])
100: Plant response rating, Ducksalad (duck salad; [6]) | Foxtail, Giant plant response rating (giant foxtail [1]; [7]) | Foxtail, Giant plant response rating (giant foxtail [1]; [8]) | Foxtail, Giant plant response rating (giant foxtail [1]; [10]) | Velvetleaf plant response rating (velvetleaf [2]; [7]) | Velvetleaf plant response rating (velvetleaf [2]; [8]) | Velvetleaf plant response rating (velvetleaf [2]; [10]) | Johnsongrass plant response rating (johnsongrass; [7]) | Johnsongrass plant response rating (johnsongrass; [8]) | Johnsongrass plant response rating (johnsongrass; [10]) | Surinam Grass plant response rating (Surinam grass; [7]) | Surinam Grass plant response rating (Surinam grass; [8]) | Surinam Grass plant response rating (Surinam grass; [10]) | Ragweed plant response rating (common ragweed; [7]) | Ragweed plant response rating (common ragweed; [8]) | Plant response rating, Ragweed (common ragweed; [9]) | Ragweed plant response rating (common ragweed; [10]) | Plant response rating, Pigweed (redroot pigweed; Preemergence, 500 g ai/ha) | Bermudagrass plant response rating (bermudagrass; 62 g ai/ha, Preemergence, scale 0 to 100 (0 no effect, 100 complete control)) | Bermudagrass plant response rating (bermudagrass; [8]) | Plant response rating, Bermudagrass (bermudagrass; [9]) | Bermudagrass plant response rating (bermudagrass; [10]) | Plant response rating, Wheat (wheat; Preemergence, 500 g ai/ha) | Plant response rating, Velvetleaf (velvetleaf [3]; Preemergence, 500 g ai/ha) | Nightshade plant response rating (eastern black nightshade; [7]) | Nightshade plant response rating (eastern black nightshade; [8]) | Plant response rating, Nightshade (eastern black nightshade; [9]) | Nightshade plant response rating (eastern black nightshade; [10]) | Goosegrass plant response rating (Goosegrass; [7]) | Goosegrass plant response rating (Goosegrass; [8]) | Goosegrass plant response rating (Goosegrass; [10]) | Plant response rating, Foxtail, Giant (giant foxtail [4]; Preemergence, 500 g ai/ha) | Lambsquarters plant response rating (lambsquarters; [7]) | Lambsquarters plant response rating (lambsquarters; [8]) | Plant response rating, Lambsquarters (lambsquarters; [9]) | Lambsquarters plant response rating (lambsquarters; [10])
70: Plant response rating, Pigweed (redroot pigweed; Postemergence, 125 g ai/ha) | Pigweed plant response rating (redroot pigweed; [12]) | Wheat plant response rating (wheat; [11]) | Oat, Wild plant response rating (wild oat; [7]) | Plant response rating, Rice (rice; [6])
60: Plant response rating, Velvetleaf (velvetleaf [2]; [9]) | Plant response rating, Johnsongrass (johnsongrass; [9]) | Corn plant response rating (corn; [11])
35: Plant response rating, Oat, Wild (wild oat; [9])
85: Plant response rating, Surinam Grass (Surinam grass; [9])

Source: patent publication US20100298141A1, “SUBSTITUTED PYRIDINE N-OXIDE HERBICIDES” (E. I. DU PONT DE NEMOURS AND COMPANY, priority 2007, published 2010)
